Earlier results, collected in paper PMC7395068, “The evolution of strategies to minimise the risk of human drug-induced liver injury (DILI) in drug discovery and development” (Archives of Toxicology, 2020).
Like-named read-outs stand apart in the source and are kept apart here.

Conditions: cited from earlier work
[1] = binary in vivo DILI call given beside the severity category, ref Chen 2016
[2] = human DILI concern category (LTKB DILIrank), ref Chen 2016
[3] = LTKB DILIrank category, ref Chen 2016
[4] = binary human DILI assignment, ref Chen 2016
[5] = binary DILI call, ref Chen 2016
[6] = binary in vivo human DILI call, ref Chen 2016
[7] = human DILI, LTKB DILIrank category, ref Chen 2016

## CCCCCCC(C)(C)c1cc(O)c2c(c1)OC(C)(C)C1CCC(=O)CC21 (centres unmarked) [nabilone]
[1]
  DILI +VE (5-8), DILI -VE (-4): -VE
[2]
  DILI severity category: vNo-DILI-Concern

## CCOC(=O)c1cncn1[C@H](C)c1ccccc1 [etomidate]
In vivo
  DILI +VE (5-8), DILI -VE (-4): -VE
  DILI severity category: vNo-DILI-Concern

## O=C1Cc2cc(CCN3CCN(c4nsc5ccccc45)CC3)c(Cl)cc2N1 [ziprasidone]
[3]
  DILI severity category: vLess-DILI-Concern
[4]
  DILI +VE (5-8), DILI -VE (-4): +VE

## CN(C)CCc1c[nH]c2ccc(CS(=O)(=O)N3CCCC3)cc12 [almotriptan]
[3]
  DILI severity category: vNo-DILI-Concern
[5]
  DILI +VE (5-8), DILI -VE (-4): -VE

## CC(=O)NCCCS(=O)(=O)O [acamprosate]
In vivo
  DILI +VE (5-8), DILI -VE (-4): +VE
  DILI severity category: vLess-DILI-Concern

## CO/N=C(\C(=O)N[C@@H]1C(=O)N2C(C(=O)[O-])=C(C[N+]3(C)CCCC3)CS[C@H]12)c1csc(N)n1 [cefepime]
In vivo
  DILI +VE (5-8), DILI -VE (-4): +VE
  DILI severity category: vLess-DILI-Concern

## O=C([O-])O.[Na+] [sodium bicarbonate]
In vivo
  DILI +VE (5-8), DILI -VE (-4): -VE

## O=C(CCCCCCC(=O)Nc1ccccc1)NO [vorinostat]
[3]
  DILI severity category: vNo-DILI-Concern
[4]
  DILI +VE (5-8), DILI -VE (-4): -VE

## CC[C@@H]([C@H](C)O)n1ncn(-c2ccc(N3CCN(c4ccc(OC[C@@H]5CO[C@@](Cn6cncn6)(c6ccc(F)cc6F)C5)cc4)CC3)cc2)c1=O [posaconazole]
[1]
  DILI +VE (5-8), DILI -VE (-4): -VE
[2]
  DILI severity category: Ambiguous DILI-concern

## tinzaparin
[1]
  DILI +VE (5-8), DILI -VE (-4): -VE
[2]
  DILI severity category: Ambiguous DILI-concern

## C[C@@H]1O[C@@H]1P(=O)(O)O [fosfomycin]
[6]
  DILI +VE (5-8), DILI -VE (-4): +VE
[7]
  DILI severity category: vLess-DILI-Concern

## CCNC(=O)[C@@H]1CCCN1C(=O)[C@H](CCCNC(=N)N)NC(=O)[C@H](CC(C)C)NC(=O)[C@@H](Cc1cn(Cc2ccccc2)cn1)NC(=O)[C@H](Cc1ccc(O)cc1)NC(=O)[C@H](CO)NC(=O)[C@H](Cc1c[nH]c2ccccc12)NC(=O)[C@H](Cc1cnc[nH]1)NC(=O)[C@@H]1CCC(=O)N1 [histrelin acetate]
[6]
  DILI +VE (5-8), DILI -VE (-4): -VE
[7]
  DILI severity category: Ambiguous DILI-concern

## COc1ccc(C[C@@H]2c3cc(OC)c(OC)cc3CC[N@+]2(C)CCC(=O)OCCCCCOC(=O)CC[N@@+]2(C)CCc3cc(OC)c(OC)cc3[C@H]2Cc2ccc(OC)c(OC)c2)cc1OC [cisatracurium besylate]
[3]
  DILI severity category: vNo-DILI-Concern
[5]
  DILI +VE (5-8), DILI -VE (-4): -VE

## O=C1CN2Cc3c(ccc(Cl)c3Cl)N=C2N1 [anagrelide]
[3]
  DILI severity category: Ambiguous DILI-concern
[5]
  DILI +VE (5-8), DILI -VE (-4): -VE

## COc1cc2nc(N(C)CCCNC(=O)C3CCCO3)nc(N)c2cc1OC (centres unmarked) [alfuzosin]
[3]
  DILI severity category: vLess-DILI-Concern

## CC1=C(C/C=C(\C)CCC[C@H](C)CCC[C@H](C)CCCC(C)C)C(=O)c2ccccc2C1=O [phytonadione]
[1]
  DILI +VE (5-8), DILI -VE (-4): -VE
[2]
  DILI severity category: vNo-DILI-Concern

## C[N@+]1(CC2CC2)CC[C@]23c4c5ccc(O)c4O[C@H]2C(=O)CC[C@@]3(O)[C@H]1C5 [methylnaltrexone bromide]
[1]
  DILI +VE (5-8), DILI -VE (-4): -VE
[2]
  DILI severity category: vNo-DILI-Concern

## CC[C@@H](c1cccc(O)c1)[C@@H](C)CN(C)C [tapentadol]
[1]
  DILI +VE (5-8), DILI -VE (-4): -VE
[2]
  DILI severity category: vNo-DILI-Concern

## N[C@@H](Cc1ccc(N(CCCl)CCCl)cc1)C(=O)O [melphalan]
[6]
  DILI +VE (5-8), DILI -VE (-4): +VE
[7]
  DILI severity category: vLess-DILI-Concern

## C=C1/C(=C\C=C2/CCC[C@]3(C)[C@@H]([C@H](C)/C=C/[C@H](C)C(C)C)CC[C@@H]23)C[C@@H](O)C[C@@H]1O [doxercalciferol]
[6]
  DILI +VE (5-8), DILI -VE (-4): -VE
[7]
  DILI severity category: Ambiguous DILI-concern

## Cc1ccsc1C(=CCCN1CCC[C@@H](C(=O)O)C1)c1sccc1C [tiagabine]
[1]
  DILI +VE (5-8), DILI -VE (-4): -VE
[2]
  DILI severity category: Ambiguous DILI-concern

## O=[N+]([O-])O[C@@H]1CO[C@H]2[C@@H]1OC[C@@H]2O [isorbide mononitrate]
In vivo
  DILI +VE (5-8), DILI -VE (-4): -VE
  DILI severity category: Ambiguous DILI-concern

## CC(C)[C@H](N)C(=O)OCC(CO)OCn1cnc2c(=O)nc(N)[nH]c21 (some centres unmarked) [valganciclovir]
[3]
  DILI severity category: Ambiguous DILI-concern
[4]
  DILI +VE (5-8), DILI -VE (-4): -VE

## CN1C2CCCC1CC(NC(=O)c1nn(C)c3ccccc13)C2 (centres unmarked) [granisetron]
[6]
  DILI +VE (5-8), DILI -VE (-4): -VE
[7]
  DILI severity category: Ambiguous DILI-concern

## CN(C)CCc1c[nH]c2ccc(Cn3cncn3)cc12 [rizatriptan]
[1]
  DILI +VE (5-8), DILI -VE (-4): -VE
[2]
  DILI severity category: vNo-DILI-Concern

## CCCCCC(=O)O[C@]1(C(C)=O)CC[C@H]2[C@@H]3CCC4=CC(=O)CC[C@]4(C)[C@H]3CC[C@@]21C [hydroxyprogesterone caproate]
[6]
  DILI +VE (5-8), DILI -VE (-4): -VE
[7]
  DILI severity category: Ambiguous DILI-concern

## CC(=O)O[C@H]1C[C@@H]2CC[C@@H]3[C@H](CC[C@@]4(C)[C@H]3C[C@H]([N+]3(C)CCCCC3)[C@@H]4OC(C)=O)[C@@]2(C)C[C@@H]1[N+]1(C)CCCCC1 [pancuronium]
In vivo
  DILI +VE (5-8), DILI -VE (-4): -VE
  DILI severity category: vNo-DILI-Concern

## ustekinumab
In vivo
  DILI +VE (5-8), DILI -VE (-4): -VE
  DILI severity category: vNo-DILI-Concern

## CCOC(=O)[C@H](CCc1ccccc1)N[C@@H](C)C(=O)N1[C@H](C(=O)O)C[C@@H]2CCC[C@@H]21 [ramipril]
In vivo
  DILI +VE (5-8), DILI -VE (-4): +VE
  DILI severity category: vLess-DILI-Concern

## CCCCc1oc2ccc(NS(C)(=O)=O)cc2c1C(=O)c1ccc(OCCCN(CCCC)CCCC)cc1 [dronedarone]
[6]
  DILI +VE (5-8), DILI -VE (-4): +VE
[7]
  DILI severity category: vMost-DILI-Concern

## CN[C@@H](C)[C@H](O)c1ccccc1 [ephedrine]
In vivo
  DILI +VE (5-8), DILI -VE (-4): -VE
  DILI severity category: vNo-DILI-Concern

## CCCCN1C[C@H](O)[C@@H](O)[C@H](O)[C@H]1CO [miglustat]
[1]
  DILI +VE (5-8), DILI -VE (-4): -VE
[2]
  DILI severity category: vNo-DILI-Concern

## CCC(=O)NCC[C@@H]1CCc2ccc3c(c21)CCO3 [ramelteon]
[1]
  DILI +VE (5-8), DILI -VE (-4): -VE
[2]
  DILI severity category: vNo-DILI-Concern

## COc1ccc2[n-]c([S@@+]([O-])Cc3ncc(C)c(OC)c3C)nc2c1.[Na+] [esomeprazole Sodium]
In vivo
  DILI +VE (5-8), DILI -VE (-4): +VE
  DILI severity category: vLess-DILI-Concern

## CC(N)C12CC3CC(CC(C3)C1)C2 (centres unmarked) [rimantadine]
[1]
  DILI +VE (5-8), DILI -VE (-4): -VE
[2]
  DILI severity category: vNo-DILI-Concern

## O=[N+]([O-])[O-].O=[N+]([O-])[O-].O=[N+]([O-])[O-].[Ga+3] [gallium nitrate]
[6]
  DILI +VE (5-8), DILI -VE (-4): -VE
[7]
  DILI severity category: Ambiguous DILI-concern

## Nc1nc2c(c(=O)[nH]1)N(C=O)C(CNc1ccc(C(=O)N[C@@H](CCC(=O)O)C(=O)O)cc1)CN2 (some centres unmarked) [leucovorin]
[6]
  DILI +VE (5-8), DILI -VE (-4): -VE
[7]
  DILI severity category: vNo-DILI-Concern

## cholestyramine
In vivo
  DILI +VE (5-8), DILI -VE (-4): -VE
  DILI severity category: Ambiguous DILI-concern

## CC(N)C(=O)OC(C)(C)Cc1ccc(Cl)cc1 (centres unmarked) [alaproclate]
[3]
  DILI severity category: vMost-DILI-Concern

## CNC[C@H](O)c1ccc(O)c(O)c1 [epinephrine]
[6]
  DILI +VE (5-8), DILI -VE (-4): -VE
[7]
  DILI severity category: vNo-DILI-Concern

## O=C(O)CCCc1ccccc1 [4-phenylbutyric acid]
[3]
  DILI severity category: Ambiguous DILI-concern
[5]
  DILI +VE (5-8), DILI -VE (-4): -VE

## CC(=O)NC[C@H]1CN(c2ccc(N3CCOCC3)c(F)c2)C(=O)O1 [linezolid]
In vivo
  DILI +VE (5-8), DILI -VE (-4): +VE
  DILI severity category: vLess-DILI-Concern

## CC1=C(C(=O)O)N2C(=O)[C@@H](NC(=O)[C@H](N)C3=CCC=CC3)[C@H]2SC1 [cephradine]
[3]
  DILI severity category: Ambiguous DILI-concern
[5]
  DILI +VE (5-8), DILI -VE (-4): -VE

## CC(C)(O)c1ccccc1CC[C@@H](SCC1(CC(=O)O)CC1)c1cccc(/C=C/c2ccc3ccc(Cl)cc3n2)c1 [montelukast]
In vivo
  DILI +VE (5-8), DILI -VE (-4): +VE
  DILI severity category: vLess-DILI-Concern

## anakinra
In vivo
  DILI +VE (5-8), DILI -VE (-4): +VE
  DILI severity category: vLess-DILI-Concern

## panitumumab
In vivo
  DILI +VE (5-8), DILI -VE (-4): -VE
  DILI severity category: vNo-DILI-Concern

## Cc1nc([N+](=O)[O-])cn1-c1ccc([N+](=O)[O-])cc1 [nitrefazole]
[1]
  DILI +VE (5-8), DILI -VE (-4): +VE
[2]
  DILI severity category: vMost-DILI-Concern

## CN(C)CCc1c[nH]c2ccc(C[C@H]3COC(=O)N3)cc12 [zolmitriptan]
[3]
  DILI severity category: Ambiguous DILI-concern
[4]
  DILI +VE (5-8), DILI -VE (-4): -VE

## sacrosidase
In vivo
  DILI +VE (5-8), DILI -VE (-4): -VE
  DILI severity category: Ambiguous DILI-concern
